Test results taken from US10716797B2, “Steroid alkaloids and compositions and kits thereof” (priority 2013, dated 2020).
Entries after “also recorded” stand apart in the source; their conditions may differ.

What was measured:
MRSA USA100 = experiment: MIC by microdilution, alone or in combination, MRSA USA100; assay type: cell-based, Staphylococcus aureus; details: agent used alone
Method: (§1) Method. The minimal inhibitory concentrations (MICs), (i.e. lowest concentration of an antimicrobial that will inhibit the visible growth of a microorganism after incubation), of test compounds were determined against the normal or SCV strains of bacterial species from the Firmicutes phylum. Briefly, MICs were determined using the microdilution method in 96-well plates (Clinical and Laboratory Standards Institute (CLSI), 2011). Bacteria were inoculated at ˜10^5-10^6 CFU/mL and incubated at 35° C. for 20 h (normal strains) or 48 h (SCVs) in brain heart infusion (BHI) broth in order to allow SCVs to reach maximal growth as previously described (Mitchell et al., 2012). Then OD595 nm was read on a microplate reader. […] In this example the range of compound concentrations tested was 0.03 to 64 μg/ml using doubling increments. Strain Staphylococcus aureus NewbouldΔhemB (hemB) was also used in the experiments and is a laboratory-derived stable SCV created by the insertion of the macrolide resistance gene ermA in the hemB gene of this strain to create the SCV phenotype (defective electron transport chain and respiratory deficiency) through inactivation of hemin biosynthesis (Brouillette et al., 2004).
(§2) In the present Example the range of compound concentrations tested, using doubling increments, was 0.03 to 64 μg/ml for Compound 14 and up to 1024 μg/ml for gentamicin (GEN), kanamycin (KAN) and cefalexin (CEF) when these compounds were used alone. Compound 14 (Cpd 14) was used at a fixed concentration of 4 μg/ml when added to other antibiotics. The combination of CEF and KAN was used in a 3:2 ratio and doubling increments were used to test the antibacterial activity against MRSA in the absence or presence of Compound 14.

S. aureus hemB (SaR1) = experiment: MIC against tomatidine-resistant SCV mutant SaR1; assay type: cell-based, Staphylococcus aureus
Method: At each passage, using a microdilution method in 96-well microplates, S. aureus hemB was inoculated at ˜10^5-10^6 CFU/ml and incubated at 35° C. for 48 h. The range of tomatidine concentrations tested was 0.03 to 64 μg/ml using doubling increments. The concentration of gentamicin was fixed at 4 μg/mL when it was used in combination with tomatidine. At each passage, the minimal inhibitory concentrations (MICs) (i.e. lowest concentration of an antimicrobial that inhibits the visible growth of bacteria), of tomatidine was determined. The bacteria used as inoculum for the next passage were from the well preceeding the well showing the MIC (i.e. the well containing half the MIC). At each passage, the population of bacteria serving as the inoculum for the next passage was spread on BHI agar plates and three isolated colonies were collected and frozen until used for whole-genome sequencing.

[1] = tested on: S. aureus SCV strain CF07-S in polarized Calu-3 epithelial cells; experiment: Intracellular replication of SCV in Calu-3 cell infection assay; assay type: cell-based, Staphylococcus aureus; details: 2 and 4 μg/ml; 48 h post-internalization; vs DMSO-treated cells; hydrochloride
Method: Human airway epithelial cells, the Calu-3 cell line ATCC HTB 55, were used in this cell culture assay. Cells were cultured in Eagle's Minimum Essential Medium (EMEM) supplemented with 0.1 mM MEM nonessential amino acids, 1 mM of sodium pyruvate, 100 U/ml penicillin, 0.1 mg/ml streptomycin, 2.5 μg/ml of Fungizone and 10% fetal bovine serum (FBS) at 37° C. in 5% CO2. For routine culture, 4 μg/ml of puromycin was added to culture media. All cell culture reagents were purchased from Wisent (St-Bruno, QC, Canada). Cell infection assays were performed as previously described (Mitchell et al., 2011). Cells were seeded at 2.5×10^5 cells/inserts on 12-well Transwell™ plates and cultured for 9 to 10 days in an air:liquid system. The complete medium in the basal compartment was replaced by the invasion medium (1% FBS and no antibiotics) 18 h before assays. Inocula were prepared by suspending bacteria grown 20 h on BHIA plates in ice-cold PBS. Bacteria (the S. aureus SCV strain CF07-S; Mitchell et al., 2011) were then washed three times in ice-cold PBS and suspended in the invasion medium supplemented with 0.5% BSA at a density of approximately 4×10^8 CFU/ml. […] Fresh invasion medium supplemented with lysostaphin was also added 1 h before cell lysis to ensure that only intracellular bacteria were counted. […]

MRSA USA300 = experiment: MIC by microdilution, alone or in combination, MRSA USA300; assay type: cell-based, Staphylococcus aureus; details: agent used alone
Method: as §1, §2

[2] = tested on: methicillin-resistant Staphylococcus aureus (MRSA) strains; experiment: MIC against MRSA strains; assay type: cell-based
Method: as §1, §2

[3] = tested on: Staphylococcus aureus strain SH1000 grown in biofilms; experiment: Calgary biofilm device, CFU and crystal violet; assay type: cell-based; details: hydrochloride
Method: The bactericidal activity of tomatidine and Compound 14 in combination with gentamicin against Staphylococcus aureus was evaluated against this bacterium grown in a biofilm. Biofilms confer to bacteria protection from host defenses as well as tolerance to some antibiotics that target active and dividing cells. In addition, biofilms also provide protection against hydrodynamic shear forces, and biofilm infections are generally difficult to eradicate even in hosts with intact immune system (Costerton et al, 1999; Davies 2003).
Staphylococcus aureus strain SH1000 of the normal phenotype (i.e., non-SCV) was used for its high ability to produce biofilms. The Calgary biofilm device (96-well plates with peg lids) was used to grow S. aureus in biofilms (Ceri et al, 1999) and to test the bactericidal activity of compounds (Moskowitz et al, 2004). Briefly, S. aureus SH1000 was grown in the Calgary biofilm device for 24 h at 35° C. until the biofilm forms on the pegs. The pegs were then washed, the medium was removed and the peg lids were dipped in fresh medium containing various amounts of test compounds. […] Replicate experiments were performed in order to quantify the residual amount of biofilm on pegs by crystal violet staining and spectrophotometry (absorbance [OD] at 562 nm).

## 3-(N-aminoethyl)-aminotomatidine hydrochloride [Compound 14]
MRSA USA100
  MIC: 16 µg/mL
S. aureus hemB (SaR1); mutant SaR1
  Fold increase in resistance (MIC for mutant / MIC for NewbouldΔhemB): 16 fold
S. aureus hemB (SaR1); tomatidine-resistant mutant SaR1
  MIC: 8 µg/mL
[1]
  intracellular SCVs in Calu-3 cells (CFU): can significantly decrease the infection; also recorded: significantly less SCVs
MRSA USA300
  MIC: 16 µg/mL
[2]; MRSA strains resistant to both cefalexin and kanamycin
  potentiation fold on addition of Compound 14 to cefalexin:kanamycin combination: 32 fold
[2]; used alone, tested MRSA strains (kanamycin: two of the strains)
  MIC on MRSA strains: 16 µg/mL
[3]; alone or in combination with gentamicin, 24 h
  killing of S. aureus in biofilms (Log 10 CFU/peg): efficiently kills; also recorded: bactericidal
[3]; used alone, Compound 14 at 4 μg/ml, TO at 8 μg/ml
  biofilm disrupting activity (residual OD562 nm): superior biofilm disrupting activity; also recorded: can also disrupt biofilm formation
